The record followed here is ChEMBL document CHEMBL1133582, “Water-soluble phosphate prodrugs of 1-propargyl-8-styrylxanthine derivatives, A(2A)-selective adenosine receptor antagonists” (J Med Chem, 2000).

SMILES strings stand for the structures. Bounds are passed on as bounds.

In assay [1] the target is T1, Adenosine receptor A1 (Rattus norvegicus, UniProt P25099).
T1 sequence (P25099 whole entry): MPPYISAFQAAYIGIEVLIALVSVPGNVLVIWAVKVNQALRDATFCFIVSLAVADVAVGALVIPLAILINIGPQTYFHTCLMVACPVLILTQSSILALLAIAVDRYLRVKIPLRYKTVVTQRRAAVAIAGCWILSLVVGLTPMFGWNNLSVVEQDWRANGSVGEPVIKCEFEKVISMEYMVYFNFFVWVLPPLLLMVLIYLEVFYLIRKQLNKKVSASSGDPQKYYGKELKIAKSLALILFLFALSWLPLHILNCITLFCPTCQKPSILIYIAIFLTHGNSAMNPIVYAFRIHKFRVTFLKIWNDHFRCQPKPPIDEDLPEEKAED
Description: Binding affinity against adenosine A1 receptor of rat without and after pre-incubation with alkaline phosphatase.

For assay [2], the target named is T1, Adenosine receptor A1. Description: Binding affinity against adenosine A1 receptor of rat brain cortical membranes using [3H]CHA.
Assay [3] addresses Adenosine receptor A2a (Rattus norvegicus, UniProt P30543). Kind of assay: Binding affinity against adenosine A2A receptor of rat brain striatal membranes using [3H]CGS-21680.
Assay [4] deals with T2, Adenosine receptor A3 (Homo sapiens, UniProt P0DMS8).
T2 sequence (P0DMS8 whole entry): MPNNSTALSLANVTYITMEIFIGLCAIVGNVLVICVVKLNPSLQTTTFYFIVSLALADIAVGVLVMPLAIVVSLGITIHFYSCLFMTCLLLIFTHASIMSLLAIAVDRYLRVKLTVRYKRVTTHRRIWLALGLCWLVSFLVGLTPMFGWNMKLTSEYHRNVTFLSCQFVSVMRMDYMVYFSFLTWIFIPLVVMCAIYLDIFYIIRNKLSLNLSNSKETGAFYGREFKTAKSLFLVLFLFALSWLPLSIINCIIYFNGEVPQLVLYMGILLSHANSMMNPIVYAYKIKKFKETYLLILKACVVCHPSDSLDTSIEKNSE
Kind of assay: Binding affinity against human adenosine A3 receptor in CHO cell membranes using [3H]NECA.

Assay [5] addresses T3, Adenosine receptor A2b (Homo sapiens, UniProt P29275).
T3 sequence (P29275 whole entry): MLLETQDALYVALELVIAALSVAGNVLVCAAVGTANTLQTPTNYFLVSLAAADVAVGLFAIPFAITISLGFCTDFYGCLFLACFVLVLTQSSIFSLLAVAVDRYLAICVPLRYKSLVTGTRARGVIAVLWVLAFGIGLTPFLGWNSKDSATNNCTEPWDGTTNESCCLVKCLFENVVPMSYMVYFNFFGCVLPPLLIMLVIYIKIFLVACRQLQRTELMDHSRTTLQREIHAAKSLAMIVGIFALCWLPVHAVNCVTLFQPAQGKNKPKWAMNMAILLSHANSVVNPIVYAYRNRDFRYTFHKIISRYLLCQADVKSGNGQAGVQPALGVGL
Description: Inhibition of NECA-induced stimulation of adenylate cyclase at human adenosine A2B receptor. Type of assay: functional.

In assay [6] the target is T4, Adenosine receptor A1 (Homo sapiens, UniProt P30542).
T4 sequence (P30542 whole entry): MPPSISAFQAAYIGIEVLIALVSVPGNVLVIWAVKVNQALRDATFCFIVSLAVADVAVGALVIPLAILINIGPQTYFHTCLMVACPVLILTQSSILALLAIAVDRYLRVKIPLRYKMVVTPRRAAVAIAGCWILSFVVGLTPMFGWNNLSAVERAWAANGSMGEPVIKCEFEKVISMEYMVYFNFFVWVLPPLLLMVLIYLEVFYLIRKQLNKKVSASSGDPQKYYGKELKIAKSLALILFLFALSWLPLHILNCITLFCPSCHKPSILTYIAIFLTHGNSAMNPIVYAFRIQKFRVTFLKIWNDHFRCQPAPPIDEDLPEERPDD
Description: Binding affinity against human adenosine A1 receptor using [3H]-CCPA (95% confidence).

For assay [7], the target named is T5, Adenosine receptor A2a (Homo sapiens, UniProt P29274).
T5 sequence (P29274 whole entry): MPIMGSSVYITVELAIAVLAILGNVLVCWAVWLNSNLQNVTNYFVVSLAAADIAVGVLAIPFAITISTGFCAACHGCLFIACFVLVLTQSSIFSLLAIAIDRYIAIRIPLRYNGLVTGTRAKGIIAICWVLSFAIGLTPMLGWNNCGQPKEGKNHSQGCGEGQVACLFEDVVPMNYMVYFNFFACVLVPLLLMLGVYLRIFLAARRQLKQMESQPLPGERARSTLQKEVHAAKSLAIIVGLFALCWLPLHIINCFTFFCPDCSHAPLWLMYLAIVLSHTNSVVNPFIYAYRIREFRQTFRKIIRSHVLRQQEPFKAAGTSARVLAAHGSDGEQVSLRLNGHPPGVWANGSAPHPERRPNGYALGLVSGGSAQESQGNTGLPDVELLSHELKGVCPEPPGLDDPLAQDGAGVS
Description: Binding affinity against human post-mortem brain adenosine A2A receptor using nuclei caudati and [3H]-CGS-21,680
For assay [8], the target named is T5, Adenosine receptor A2a. The source holds these as a separate data set.
Description: Binding affinity against human adenosine A2A receptor using [3H]CGS-21680 (95% confidence)

Chain of Adenosine receptor A2a (Rattus norvegicus, UniProt P30543) (P30543 whole entry): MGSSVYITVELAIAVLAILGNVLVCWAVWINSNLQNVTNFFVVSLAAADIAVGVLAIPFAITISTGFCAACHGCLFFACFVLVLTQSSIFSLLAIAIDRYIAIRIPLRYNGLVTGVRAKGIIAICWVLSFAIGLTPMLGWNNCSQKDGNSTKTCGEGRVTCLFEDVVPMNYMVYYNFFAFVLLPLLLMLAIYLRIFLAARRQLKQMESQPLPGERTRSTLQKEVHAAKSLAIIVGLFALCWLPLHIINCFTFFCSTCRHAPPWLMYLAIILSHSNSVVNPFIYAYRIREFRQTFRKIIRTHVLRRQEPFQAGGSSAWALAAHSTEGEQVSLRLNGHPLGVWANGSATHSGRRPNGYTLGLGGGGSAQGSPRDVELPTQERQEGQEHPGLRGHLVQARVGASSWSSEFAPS

The term Ki denotes a dissociation constant, usually derived from enzyme kinetics or from competition with a known ligand. Low values mean a stronger hold on the target, high ones a looser hold on the target. With `C#CCn1c(=O)c2c(nc(/C=C/c3cccc(OC)c3)n2C)n(CCCOP(=O)(O)O)c1=O`, the Ki in assay [1] was 1120 nM.

`C#CCn1c(=O)c2c(nc(/C=C/c3cccc(Br)c3)n2C)n(CCCO)c1=O`: the Ki in assay [2] was determined as 625 nM; in assay [3], 13 nM.

Take `C#CCn1c(=O)c2c(nc(/C=C/c3cccc(OC)c3)n2C)n(CCO)c1=O`: the Ki in assay [2] stood at 1040 nM; in assay [3], 39 nM.

Take `C#CCn1c(=O)c2c(nc(/C=C/c3cccc(OC)c3)n2C)n(CCCO)c1=O`: the Ki in assay [4] is over 10000 nM; in assay [2], 900 nM; in assay [3], 8 nM; in assay [5] it was over 10000 nM; in assay [6], 2500 nM; in assay [7], 15 nM. Also, the Ki in assay [8] was 5 nM.

Regarding `C#CCn1c(=O)c2c(nc(/C=C/c3cccc(N)c3)n2C)n(C)c1=O`, the inhibitory constant (Ki) was determined as 1070 nM in assay [2] and 42 nM in assay [3].

Consider `C#CCn1c(=O)c2c(nc(/C=C/c3cccc(Br)c3)n2C)n(C)c1=O`, for which the inhibition constant (Ki) in assay [4] and in assay [5] was over 10000 nM throughout.

Regarding `C#CCn1c(=O)c2c(nc(/C=C/c3cccc(O)c3)n2C)n(C)c1=O`, the Ki in assay [2] is 940 nM; in assay [3], 21 nM.

As for `C#CCn1c(=O)c2c(nc(/C=C/c3cccc(Br)c3)n2C)n(CCO)c1=O`, the Ki in assay [2] came to 1280 nM; in assay [3] it was 25 nM.

Take `C#CCn1c(=O)c2c(nc(/C=C/c3cccc(OC)c3)n2C)n(C)c1=O`: the Ki came out at 1280 nM in assay [2] and 12 nM in assay [3].
